Experimental data from ChEMBL document CHEMBL1131581, “4H-1,2,4-Pyridothiadiazine 1,1-dioxides and 2,3-dihydro-4H-1,2, 4-pyridothiadiazine 1,1-dioxides chemically related to diazoxide and cyclothiazide as powerful positive allosteric modulators of (R/S)-2-amino-3-(3-hydroxy-5-methylisoxazol-4-yl)propionic acid receptors: design, synthesis, …” (J Med Chem, 1998).

Columns and labels:
[1] = target: T1, Glutamate receptor ionotropic, AMPA (Rattus norvegicus) (UniProt P19491+P19492+P19493+P19490); test: Concentration of drug giving a 2-fold increase of the magnitude of the current induced by Ionotropic glutamate receptor AMPA (30 uM) and measured in Xenopus Oocytes expressing Rat Cortex AMPA Receptors; format: functional, cell-based
[2] = target: T1, Glutamate receptor ionotropic, AMPA (Rattus norvegicus); test: concentration of drug giving a 5-fold increase of the magnitude of the current induced by Ionotropic glutamate receptor AMPA (30 uM) and measured in Xenopus Oocytes expressing Rat Cortex AMPA Receptors; format: functional, cell-based
Rattus norvegicus [3] = species on record: Rattus norvegicus; test: Effect on duration of the postsynaptic excitatory potentials induced by electric stimulation in rat hippocampal slices; format: functional, Hippocampus
Rattus norvegicus [4] = species on record: Rattus norvegicus; test: Effect on amplitude of the postsynaptic excitatory potentials induced by electric stimulation in rat hippocampal slices; format: functional, Hippocampus
[5] = Ratio between the D50 value and the A50 value; format: functional
Rattus norvegicus [6] = species on record: Rattus norvegicus; test: Residual insulin release from rat pancreatic islets incubated in the presence of an insulinotropic […] glucose concentration and at a 50 uM concentration of drug; format: functional
[7] = Partition coefficient was measured in between 1-octanol and aqueous buffer solution of pH 7.4; format: physicochemical; details: 1-octanol/aqueous buffer
Rattus norvegicus [8] = species on record: Rattus norvegicus; test: Concentration for 50 percent increase of the amplitude (A50) of the postsynaptic excitatory potentials induced by electric stimulation in rat hippocampal slices; format: functional, Hippocampus
Rattus norvegicus [9] = species on record: Rattus norvegicus; test: Concentration for 50 percent increase of the duration (D50) of the postsynaptic excitatory potentials induced by electric stimulation in rat hippocampal slices; format: functional, Hippocampus

EC2x [1] [µM] | EC5X [2] [µM] | Compound | further results
> 1000 | > 1000 | CCCC1Nc2ccncc2S(=O)(=O)N1 (stereo unspecified) | –
265 | 645 | CN1C=NS(=O)(=O)c2ncccc21 | –
150 | 450 | CC1NS(=O)(=O)c2cnccc2N1C (stereo unspecified) | –
> 100 | > 100 | O=S1(=O)c2cnccc2NCN1C1CCCCC1 | –
27 | 41 | CC(C)N1CNS(=O)(=O)c2ncccc21 | –
> 1000 | > 1000 | CCCN1CN(C)c2ccncc2S1(=O)=O | –
214 | 381 | CC1Nc2ccncc2S(=O)(=O)N1C (stereo unspecified) | –
21 | 51 | CN1CNS(=O)(=O)c2ncccc21 | D50 (Rattus norvegicus [3]): 48 µM; A50 (Rattus norvegicus [4]): 79 µM; Ratio [5]: 0.6
96 | 186 | CCN1C=NS(=O)(=O)c2ncccc21 | –
300 | 805 | CCCN1CNS(=O)(=O)c2cnccc21 | –
> 1000 | > 1000 | NC1=NS(=O)(=O)c2cnccc2N1 | RIS (Rattus norvegicus [6]): 104%
> 1000 | > 1000 | O=S1(=O)N=CNc2ncccc21 | –
400 | 900 | CC1=NS(=O)(=O)c2ncccc2N1 | logD [7]: -0.91; RIS (Rattus norvegicus [6]): 98.7%
39 | 133 | CN1CN(C)S(=O)(=O)c2ncccc21 | –
55 | 195 | CCN1CNS(=O)(=O)c2cnccc21 | D50 (Rattus norvegicus [3]): 137 µM; A50 (Rattus norvegicus [4]): 222 µM; Ratio [5]: 0.6
> 1000 | > 1000 | CC1=NS(=O)(=O)c2cccnc2N1 | logD [7]: -0.25; RIS (Rattus norvegicus [6]): 92.8%
> 1000 | > 1000 | O=S1(=O)NCNc2ncccc21 | –
> 1000 | > 1000 | CC1Nc2ncccc2S(=O)(=O)N1 (stereo unspecified) | logD [7]: 0.35; RIS (Rattus norvegicus [6]): 94.8%
300 | > 1000 | CN1CN(C)S(=O)(=O)c2cnccc21 | –
> 1000 | > 1000 | CCC(CC)C1Nc2ccncc2S(=O)(=O)N1 (stereo unspecified) | –
200 | 500 | CN1CNS(=O)(=O)c2cccnc21 | –
> 1000 | > 1000 | CC(C)C1Nc2ccncc2S(=O)(=O)N1 (stereo unspecified) | –
> 1000 | > 1000 | CC(C)N1CN(C)S(=O)(=O)c2cnccc21 | –
> 1000 | > 1000 | O=S1(=O)N=C(C(F)(F)F)Nc2ccncc21 | –
1.6 | 9.8 | NS(=O)(=O)c1cc2c(cc1Cl)NC(C1CC3C=CC1C3)NS2(=O)=O (stereo unspecified) [CYCLOTHIAZIDE] | D50 (Rattus norvegicus [3]): >300 µM; A50 (Rattus norvegicus [4]): >300 µM
> 1000 | > 1000 | CN1CNc2ccncc2S1(=O)=O | –
448 | > 1000 | CC1=Nc2ccc(Cl)cc2S(=O)(=O)N1 [DIAZOXIDE] | A50 (Rattus norvegicus [8]): >500 µM; D50 (Rattus norvegicus [9]): >500 µM; RIS (Rattus norvegicus [6]): 28.8%
> 1000 | > 1000 | O=S1(=O)N=CNc2ccncc21 | –
> 1000 | > 1000 | O=S1(=O)N=CNc2cccnc21 | –
